Data taken from paper PMC2914114 (Molecular pharmaceutics, 2010).

Tests used:
[1] = calculated from Stokes-Einstein equation for equivalent spheres; cited from earlier work
Permeability = settings: human, pH 7.4

| SMILES | A-B versus B-A relative permeability (PM) (hCMEC/D3 cells) | PM (permeability across the monolayer itself) (hCMEC/D3 cells; pH 7.4) | Molecular Radius [1] [Å] | Papp at 2 h, 0.25 µCi/mL (Permeability) [×10⁻⁶ cm/s] |
| --- | --- | --- | --- | --- |
| CC(C)[C@H](N)C(=O)OCCOCn1cnc2c(=O)[nH]c(N)nc21 [valacyclovir] | no differences between the A-B and B-A relative permeabilities | – | – | – |
| NC(N)=O [[^14C] Urea, Urea] | – | 5.65 ± 0.08 × 10^−5 cm/sec | 2.67 | – |
| OC[C@@H](O)[C@@H](O)[C@H](O)[C@H](O)CO [[^14C] Mannitol, Mannitol] | – | – | 4.10 | 24.7 ± 0.2 |
